In patent US20250019377A1 (JACOBIO PHARMACEUTICALS CO., LTD, priority 2021, published 2025):
pIC50: −log10 of the molar value. Read-outs that look alike come from different tables or passages of the source.

Assays:
[1] = system: p-ERK in SW620 cells (K-Ras G12V); test: Phospho-ERK1/2(THR202/TYR204) HTRF assay, SW620; assay type: cell-based; details: Homo sapiens, SW-620, 2 h, 2 hours incubation
[2] = system: NCI-H358 cells (K-Ras G12C)
AGS cells (K-Ras G12D) = test: 2D cell growth inhibition assay, AGS; assay type: cell-based; details: Homo sapiens, 144 h, 6 days, absolute IC50
SW620 cells (K-Ras G12V) = test: 2D cell growth inhibition assay, SW620; assay type: cell-based; details: Homo sapiens, SW-620, 144 h, 6 days, absolute IC50
[3] = system: NCI-H460 cells (K-Ras Q61H); test: 3D cell growth inhibition assay, NCI-H460; assay type: cell-based; details: Homo sapiens, 144 h, 6 days, absolute IC50
[4] = system: TCC-PAN2 cells (K-Ras G12R); test: 3D cell growth inhibition assay, TCC-PAN2; assay type: cell-based; details: 144 h, 6 days, absolute IC50
[5] = system: p-ERK in NCI-H358 cells (K-Ras G12C); test: Phospho-ERK1/2(THR202/TYR204) HTRF assay, NCI-H358; assay type: cell-based; details: Homo sapiens, 2 hours incubation
[6] = system: p-ERK in MKN-1 cells (K-Ras WT amplification); test: Phospho-ERK1/2(THR202/TYR204) HTRF assay, MKN-1; assay type: cell-based; details: Homo sapiens; MKN-1, K-Ras WT, 2 hours incubation
[7] = system: p-ERK in NCI-H460 cells (K-Ras Q61H); test: Phospho-ERK1/2(THR202/TYR204) HTRF assay, NCI-H460; assay type: cell-based; details: Homo sapiens, 2 hours incubation
[8] = system: RERF-LC-Ad1 cells (K-Ras G12A)
[9] = system: p-ERK in TCC-PAN2 cells (K-Ras G12R); test: Phospho-ERK1/2(THR202/TYR204) HTRF assay, TCC-PAN2; assay type: cell-based; details: 2 hours incubation
[10] = system: Capan-2 cells (K-Ras G12V)
[11] = system: AsPC-1 cells (K-Ras G12D); test: 2D cell growth inhibition assay, AsPC-1; assay type: cell-based; details: Homo sapiens, ASPC1, 144 h, AsPC-1, K-Ras G12D, 6 days, absolute IC50
MKN-1 cells (K-Ras WT) = test: 3D cell growth inhibition assay, MKN-1; assay type: cell-based; details: Homo sapiens, 144 h, MKN-1, K-Ras WT, 6 days, absolute IC50
[12] = system: p-ERK in NCI-H747 cells (K-Ras G13D)
[13] = system: NCI-H747 cells (K-Ras G13D)
[14] = system: p-ERK in AGS cells (K-Ras G12D); test: Phospho-ERK1/2(THR202/TYR204) HTRF assay, AGS; assay type: cell-based; details: Homo sapiens, 2 h, 2 hours incubation
K-Ras G12V [15] = biological target: T1, K-Ras G12V (Homo sapiens, UniProt P01116, G12V); test: SOS1 catalyzed nucleotide exchange assay (GDP form K-Ras), K-Ras G12V; details: read-out: K-Ras G12V GDP Biochemical Activity (IC50)
T1 sequence (P01116 1-169 isoform P01116-2 G12V): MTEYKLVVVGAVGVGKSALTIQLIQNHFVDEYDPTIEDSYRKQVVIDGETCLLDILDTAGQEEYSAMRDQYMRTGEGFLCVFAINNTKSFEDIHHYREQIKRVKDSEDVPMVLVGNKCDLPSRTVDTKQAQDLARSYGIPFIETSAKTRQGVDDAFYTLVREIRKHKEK

K-Ras G12D [16] = biological target: T2, K-Ras G12D (Homo sapiens, UniProt P01116, G12D); test: biochemical
T2 sequence (P01116 1-169 isoform P01116-2 G12D): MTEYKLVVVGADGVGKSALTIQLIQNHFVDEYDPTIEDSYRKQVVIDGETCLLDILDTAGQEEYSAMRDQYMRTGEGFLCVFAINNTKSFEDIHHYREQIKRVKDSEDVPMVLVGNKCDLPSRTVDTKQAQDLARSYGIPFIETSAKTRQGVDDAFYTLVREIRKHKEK

K-Ras G12V [17] = biological target: T1, K-Ras G12V; test: biochemical
K-Ras G12D [18] = biological target: T2, K-Ras G12D; test: biochemical; remark: listed apart in the source

Row | SMILES | IC50 [1] | pIC50 [2] | IC50 (AGS cells (K-Ras G12D)) | IC50 (SW620 cells (K-Ras G12V)) | IC50 [3] | IC50 [4] | IC50 [5] | IC50 [6] | IC50 [7] | pIC50 [8] | IC50 [9] | pIC50 [10] | IC50 [11] | IC50 (MKN-1 cells (K-Ras WT)) | pIC50 [12] | pIC50 [13] | IC50 [14] | other results
1 | C#Cc1c(F)ccc2cc(O)cc(-c3ncc4c(N5CCCO[C@@H]6C[C@@H]65)nc(OC[C@@]56CCCN5C[C@H](F)C6)nc4c3F)c12 (single isomer, unassigned) [Compound 7B] | 1.01 nM | 8.59 | 0.423 nM | 0.858 nM | 17.9 nM | 41 nM | 0.881 nM | 1 nM | 1.66 nM | 8.60 | 13.5 nM | 8.54 | 2.73 nM | 3.7 nM | 9.15 | 9.09 | 0.255 nM | 
2 | C#Cc1c(F)ccc2cc(O)cc(-c3ncc4c(N5CCCOCC5)nc(OC[C@@]56CCCN5C[C@H](F)C6)nc4c3F)c12 [Compound 1, 5-ethynyl-6-fluoro-4-(8-fluoro-2-(((2R,7aS)-2-fluorotetrahydro-1H-pyrrolizin-7a(5H)-yl)methoxy)-4-(1,4-oxazepan-4-yl)pyrido[4,3-d]pyrimidin-7-yl)naphthalen-2-ol trifluoroacetic acid] | 2.74 nM |  | 2.45 nM | 4.68 nM | 75.1 nM | 189 nM | 2.2 nM | 1.34 nM | 7.04 nM | 7.69 | 207 nM | 7.54 | 43.8 nM | 8.23 nM | 8.79 | 8.25 | 0.974 nM | 
3 | C#Cc1c(F)ccc2cc(O)cc(-c3ncc4c(N5CCCOC6CC65)nc(OC[C@@]56CCCN5C[C@H](F)C6)nc4c3F)c12 (stereo partly drawn) [Compound 7, 4-(4-(2-oxa-6-azabicyclo[5.1.0]octan-6-yl)-8-fluoro-2-(((2R,7aS)-2-fluorotetrahydro-1H-pyrrolizin-7a(5H)-yl)methoxy)pyrido[4,3-d]pyrimidin-7-yl)-5-ethynyl-6-fluoronaphthalen-2-ol] | 2.21 nM | 8.63 | 0.778 nM | 1.33 nM | 39.8 nM | 165 nM | 1.67 nM | 3.44 nM | 2.95 nM | 8.28 | 31 nM | 8.13 | 12.8 nM | 3.46 nM | 9.04 | 8.50 | 0.82 nM | 
4 | C#Cc1c(F)ccc2cc(O)cc(-c3ncc4c(N5CCCOCC5)nc(OC[C@@]56CCCN5C[C@H](OC)C6)nc4c3F)c12 [Compound 11, 5-ethynyl-6-fluoro-4-(8-fluoro-2-(((2R,7aS)-2-methoxytetrahydro-1H-pyrrolizin-7a(5H)-yl)methoxy)-4-(1,4-oxazepan-4-yl)pyrido[4,3-d]pyrimidin-7-yl)naphthalen-2-ol] | 18.7 nM | 7.20 | 40.6 nM | 34.1 nM | 866 nM | > 1000 nM | 2.53 nM | 19.5 nM | 63.8 nM | 6.82 | 560 nM | 6.51 | 380 nM | 28.1 nM | 7.75 | 7.25 | 14.9 nM | 
5 | C#Cc1c(C)ccc2cc(O)cc(-c3ncc4c(N5CCCOCC5)nc(OC[C@@]56CCCN5C[C@H](F)C6)nc4c3F)c12 [Compound 38, 5-ethynyl-4-(8-fluoro-2-(((2R,7aS)-2-fluorotetrahydro-1H-pyrrolizin-7a(5H)-yl)methoxy)-4-(1,4-oxazepan-4-yl)pyrido[4,3-d]pyrimidin-7-yl)-6-methylnaphthalen-2-ol trifluoroacetic acid] | 7.72 nM | 7.87 | 2.73 nM | 13.1 nM | 159 nM | ≥ 1000 nM | 2.23 nM | 10.6 nM | 14.9 nM |  | 218 nM | 7.24 | 77.3 nM | 10 nM | 8.50 | 7.98 | 2.16 nM | 
6 | C#Cc1c(Cl)ccc2cc(O)cc(-c3ncc4c(N5CCCOCC5)nc(OC[C@@]56CCCN5C[C@H](F)C6)nc4c3F)c12 [Compound 39, 6-chloro-5-ethynyl-4-(8-fluoro-2-(((2R,7aS)-2-fluorotetrahydro-1H-pyrrolizin-7a(5H)-yl)methoxy)-4-(1,4-oxazepan-4-yl)pyrido[4,3-d]pyrimidin-7-yl)naphthalen-2-ol trifluoroacetic acid] | 3.36 nM |  | 2.09 nM | 9.66 nM | 125 nM | 949 nM | 1.38 nM | 9.92 nM | 9.92 nM |  | 156 nM |  | 61.2 nM | 7.34 nM |  |  |  | 
7 | C#Cc1c(F)ccc2cc(O)cc(-c3nc(NC)c4c(N5CCCOCC5)nc(OC[C@@]56CCCN5C[C@H](F)C6)nc4c3F)c12 [Compound 53, 5-ethynyl-6-fluoro-4-(8-fluoro-2-(((2R,7aS)-2-fluorotetrahydro-1H-pyrrolizin-7a(5H)-yl)methoxy)-5-(methylamino)-4-(1,4-oxazepan-4-yl)pyrido[4,3-d]pyrimidin-7-yl)naphthalen-2-ol trifluoroacetic acid] | 6.18 nM | 7.33 | 9.17 nM | 19.4 nM | 24 nM | ≥ 1000 nM | 3.86 nM | 9.74 nM | 17.5 nM |  | 456 nM | 6.82 | 88.2 nM | 25.7 nM | 8.16 | 7.47 | 2.66 nM | 
8 | C#Cc1c(F)ccc2cc(O)cc(-c3nc(OC)c4c(N5CCCOCC5)nc(OC[C@@]56CCCN5C[C@H](F)C6)nc4c3F)c12 [Compound 65, 5-ethynyl-6-fluoro-4-(8-fluoro-2-(((2R,7aS)-2-fluorotetrahydro-1H-pyrrolizin-7a(5H)-yl)methoxy)-5-methoxy-4-(1,4-oxazepan-4-yl)pyrido[4,3-d]pyrimidin-7-yl)naphthalen-2-ol trifluoroacetic acid] | 4.31 nM | 7.83 | 1.61 nM | 3.03 nM | 37.2 nM | 275 nM | 1.24 nM | 3.71 nM | 7.82 nM | 7.59 | 74.9 nM | 8.15 | 29.2 nM | 11 nM | 8.53 | 8.01 | 0.81 nM | 
9 | C#Cc1c(F)ccc2cc(O)cc(-c3nc(OCC)c4c(N5CCCOCC5)nc(OC[C@@]56CCCN5C[C@H](F)C6)nc4c3F)c12 [Compound 66, 4-(5-ethoxy-8-fluoro-2-(((2R,7aS)-2-fluorotetrahydro-1H-pyrrolizin-7a(5H)-yl)methoxy)-4-(1,4-oxazepan-4-yl)pyrido[4,3-d]pyrimidin-7-yl)-5-ethynyl-6-fluoronaphthalen-2-ol] | 2.74 nM | 7.59 | 3.86 nM | 7.33 nM | 53.2 nM | 621 nM | 3.48 nM | 7.81 nM | 12.8 nM | 7.58 | 121 nM | 7.91 | 50.3 nM | 23.9 nM | 8.36 | 7.98 | 1.15 nM | 
10 | Oc1cc2c(c(-c3ncc4c(N5CCCOCC5)nc(OC[C@@]56CCCN5C[C@H](F)C6)nc4c3F)c1)N(CC(F)F)CCC2 [Compound 126, 1-(2,2-difluoroethyl)-8-(8-fluoro-2-(((2R,7aS)-2-fluorotetrahydro-1H-pyrrolizin-7a(5H)-yl)methoxy)-4-(1,4-oxazepan-4-yl)pyrido[4,3-d]pyrimidin-7-yl)-1,2,3,4-tetrahydroquinolin-6-ol] |  |  |  |  |  |  |  |  |  |  |  |  |  |  |  |  |  | pIC50 (K-Ras G12V [15]): 7.07; pIC50 (K-Ras G12D [16]): < 6.00; pIC50 (K-Ras G12V [17]): < 6.00; pIC50 (K-Ras G12D [18]): 7.12
